# Test results as given in patent publication US20110224208A1, “NOVEL INHIBITORS OF FLAVIVIRUS REPLICATION” (KATHOLIEKE UNIVERSITEIT LEUVEN, K.U. LEUVEN R&D, priority 2008, published 2011).
# Assays:
# [1] = system: HCV replicon I389luc-ubi-neo/NS3-3'/5.1; assay: Anti-HCV replicon assay (luciferase activity) in Huh-5-2 cells; format: cell-based, Hepatitis C virus; conditions: concentration required to inhibit luciferase activity in the replicon system by 50%
# In short: (§1)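 Huh-5-2 cells carrying the luciferase HCV replicon, seeded 24 h, then exposed to serial compound dilutions without G418 for 72 h at 37° C, 5% CO2. Replication read as luciferase luminescence, expressed as percentage of untreated cultures; culture density measured in parallel by MTS.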
# [2] = system: Huh-5-2 cells; assay: Proliferation of exponentially growing Huh-5-2 cells (MTS method); conditions: concentration required to inhibit the proliferation of exponentially growing Huh-5-2 cells by 50%
# In short: as §1
# [3] = system: HCV replicon (RNA) synthesis; assay: Quantitative analysis of HCV replicon RNA by Taqman real-time RT-PCR in Huh-5-2 cells; format: cell-based, Hepatitis C virus
# Description: Replicon cells were plated at 7.5×10^3 cells per well in a 96-well plate plates at 37° C. and 5% CO2 in Dulbecco's modified essential medium containing 10% fetal calf serum, 1% nonessential amino acids and 1 mg/ml Geneticin. After allowing 24 h for cell attachment, different dilutions of compound were added to the cultures. Plates were incubated for 5 days, at which time RNA was extracted using the Qiamp Rneazyi Kit (Qiagen, Hilden, Germany). […] After initial activation of uracil-N-glycosylase at 50° C. for 2 minutes, RT was performed at 60° C. for 30 minutes, followed by inactivation of uracil-N-glycosylase at 95° C. for 5 minutes. Subsequent PCR amplification consisted of 40 cycles of denaturation at 94° C. for 20 seconds and annealing and extension at 62° C. for 1 minute in an ABI 7700 sequence detector. For each PCR run, negative template and positive template samples were used. The cycle threshold value (Ct-value) is defined as the number of PCR cycles for which the signal exceeds the baseline, which defines a positive value. The sample was considered to be positive if the Ct-value was <50. Results are expressed as genomic equivalents (GE).
# [4] = Proliferation of exponentially growing Huh-5-2 cells (MTS method); conditions: human, CC50, concentration required to inhibit the proliferation of exponentially growing Huh-5-2 cells by 50%
# In short: as §1
# [5] = Hepatitis C virus, Huh-5-2, 72 h
# [6] = Hepatitis C virus, Huh-5-2, concentration required to reduce the synthesis of HCV replicon by 50% as determined by real-time quantitative RT-PCR
Compound,"IC50 [1, 5]","EC50 [3, 6]",CC50 at 72 h ([4]; Table 2),CC50 at 72 h ([4]; Table 4),also measured
"COCCN1C(=O)c2ccccc2C(C(=O)NCc2ccc(OC)cc2)C1c1cccs1 (centres unmarked) [C79, N-(4-methoxybenzyl)-2-(2-methoxyethyl)-1-oxo-3-(thiophen-2-yl)-1,2,3,4-tetrahydroisoquinoline-4-carboxamide]",68.2 mg/L,–,–,–,CC50 ([2]; Table 2): 125 mg/L
"CCOC(=O)c1cccc(NC(=O)C2c3ccccc3C(=O)N(CCOC)C2c2cccs2)c1 (centres unmarked) [C46, Ethyl 3-(2-(2-methoxyethyl)-1-oxo-3-(thiophen-2-yl)-1,2,3,4-tetrahydroisoquinoline-4-carboxamido)benzoate]",1.4 mg/L,1.19 mg/L,86.3 mg/L,> 50 mg/L,–
"COCCN1C(=O)c2ccccc2C(C(=O)Nc2ccc(-n3cccc3)cc2)C1c1cccs1 (centres unmarked) [C116, N-(4-(1H-pyrrol-1-yl)phenyl)-2-(2-methoxyethyl)-1-oxo-3-(thiophen-2-yl)-1,2,3,4-tetrahydroisoquinoline-4-carboxamide]",0.04 mg/L,0.062 mg/L,72.4 mg/L,> 50 mg/L,–
"COCCN1C(=O)c2ccccc2C(CNc2ccc(Cl)cc2)C1c1cccs1 (centres unmarked) [C78, 4-((4-chlorophenylamino)methyl)-2-(2-methoxyethyl)-3-(thiophen-2-yl)-3,4-dihydroisoquinolin-1(2H)-one]",50.5 mg/L,–,–,–,CC50 ([2]; Table 2): 125 mg/L
"COCCN1C(=O)c2cc(F)ccc2C(C(=O)Nc2cccc(OC)c2)C1c1cccs1 (centres unmarked) [C52, 7-Fluoro-2-(2-methoxyethyl)-N-(3-methoxyphenyl)-1-oxo-3-(thiophen-2-yl)-1,2,3,4-tetrahydroisoquinoline-4-carboxamide]",0.4 mg/L,< 0.4 mg/L,81.2 mg/L,> 50 mg/L,–
"COCCN1C(=O)c2ccccc2C(C(=O)Nc2ccc(-c3ccccc3)nc2)C1c1cccs1 (centres unmarked) [C186, 2-(2-methoxyethyl)-1-oxo-N-(6-phenylpyridin-3-yl)-3-(thiophen-2-yl)-1,2,3,4-tetrahydroisoquinoline-4-carboxamide]",0.04 mg/L,0.045 mg/L,2.79 mg/L,> 50 mg/L,–
"COCCN1C(=O)c2ccccc2C(C(=O)Nc2cccc(OC)c2)C1CC(F)(F)F (centres unmarked) [C71, 2-(2-methoxyethyl)-N-(3-methoxyphenyl)-1-oxo-3-(2,2,2-trifluoroethyl)-1,2,3,4-tetrahydroisoquinoline-4-carboxamide]",12.6 mg/L,–,–,–,CC50 ([2]; Table 2): 125 mg/L
"COCCN1C(=O)c2ccccc2C(C(=O)Nc2cccc(OC)c2)C1c1cccs1 (racemic) [C1, 2-(2-methoxyethyl)-N-(3-methoxyphenyl)-1-oxo-3-(thiophen-2-yl)-1,2,3,4-tetrahydroisoquinoline-4-carboxamide]",–,24 mg/L,–,> 50 mg/L,"IC50 ([1]; 72 hours, listed as C1 (cis)): 0.3 mg/L; CC50 ([2]; Table 2, listed as C1 (cis)): 83.7 mg/L"
"COCCN1C(=O)c2c(Cl)cccc2C(C(=O)Nc2cccc(OC)c2)C1c1cccs1 (centres unmarked) [C24, 8-Chloro-2-(2-methoxyethyl)-N-(3-methoxyphenyl)-1-oxo-3-(thiophen-2-yl)-1,2,3,4-tetrahydroisoquinoline-4-carboxamide]",35.7 mg/L,–,–,–,CC50 ([2]; Table 2): 125 mg/L
"COCCN1C(=O)c2ccccc2C(C(=O)Nc2cccc(OC)c2)C1Cc1ccccc1 (centres unmarked) [C68, 3-Benzyl-2-(2-methoxyethyl)-N-(3-methoxyphenyl)-1-oxo-1,2,3,4-tetrahydroisoquinoline-4-carboxamide]",70.6 mg/L,–,–,–,CC50 ([2]; Table 2): 125 mg/L
"COCCN1C(=O)c2ccccc2C(C(=O)Nc2cccc(OC)c2)C1C#C[Si](C)(C)C (centres unmarked) [C70, 2-(2-methoxyethyl)-N-(3-methoxyphenyl)-1-oxo-3-((trimethylsilyl)ethynyl)-1,2,3,4-tetrahydroisoquinoline-4-carboxamide]",3.33 mg/L,–,–,–,CC50 ([2]; Table 2): 125 mg/L
"COCCN1C(=O)c2cc(C)ccc2C(C(=O)Nc2cccc(OC)c2)C1c1cccs1 (centres unmarked) [C41, 2-(2-Methoxyethyl)-N-(3-methoxyphenyl)-7-methyl-1-oxo-3-(thiophen-2-yl)-1,2,3,4-tetrahydroisoquinoline-4-carboxamide]",0.5 mg/L,0.28 mg/L,107 mg/L,> 50 mg/L,–
"COc1cccc(NC(=O)C2c3ccccc3C(=O)N(CC3CCCO3)C2c2cccs2)c1 (centres unmarked) [C31, N-(3-methoxyphenyl)-1-oxo-2-((tetrahydrofuran-2-yl)methyl)-3-(thiophen-2-yl)-1,2,3,4-tetrahydroisoquinoline-4-carboxamide]",1.1 mg/L,18 mg/L,66.5 mg/L,> 50 mg/L,–
"COCCN1C(=O)c2ccccc2C(C(=O)Nc2ccc(-c3csc(C)n3)cc2)C1c1cccs1 (centres unmarked) [C157, 2-(2-methoxyethyl)-N-(4-(2-methylthiazol-4-yl)phenyl)-1-oxo-3-(thiophen-2-yl)-1,2,3,4-tetrahydroisoquinoline-4-carboxamide]",0.04 mg/L,0.036 mg/L,–,–,–
"COCCN1C(=O)c2ccccc2C(C(=O)Nc2ccc(-c3cnco3)cc2)C1c1cccs1 (centres unmarked) [C178, 2-(2-methoxyethyl)-N-(4-(oxazol-5-yl)phenyl)-1-oxo-3-(thiophen-2-yl)-1,2,3,4-tetrahydroisoquinoline-4-carboxamide]",0.035 mg/L,0.036 mg/L,–,–,–
"COCCN1C(=O)c2ccccc2C(C(=O)Nc2ccc(-c3noc(C)n3)cc2)C1c1cccs1 (centres unmarked) [C187, 2-(2-methoxyethyl)-N-(4-(5-methyl-1,2,4-oxadiazol-3-yl)phenyl)-1-oxo-3-(thiophen-2-yl)-1,2,3,4-tetrahydroisoquinoline-4-carboxamide]",0.01 mg/L,< 0.016 mg/L,–,–,–
"COCCN1C(=O)c2ccccc2C(C(=O)Nc2ccc(Cl)cc2)C1c1cccs1 (centres unmarked) [C49, N-(4-chlorophenyl)-2-(2-methoxyethyl)-1-oxo-3-(thiophen-2-yl)-1,2,3,4-tetrahydroisoquinoline-4-carboxamide]",0.1 mg/L,0.85 mg/L,–,–,–
"COCCN1C(=O)c2ccccc2C(C(=O)Nc2ccc(OC)c(OC)c2)C1c1cccs1 (centres unmarked) [C48, N-(3,4-dimethoxyphenyl)-2-(2-methoxyethyl)-1-oxo-3-(thiophen-2-yl)-1,2,3,4-tetrahydroisoquinoline-4-carboxamide]",0.3 mg/L,0.6 mg/L,–,–,–
"COCCN1C(=O)c2ccccc2C(C(=O)Nc2ccc(C(=O)OC)cc2)C1c1cccs1 (centres unmarked) [C45, Methyl 4-(2-(2-methoxyethyl)-1-oxo-3-(thiophen-2-yl)-1,2,3,4-tetrahydroisoquinoline-4-carboxamido)benzoate]",0.1 mg/L,12 mg/L,–,–,–
"COCCN1C(=O)c2ccccc2C(C(=O)Nc2cccc(OC)c2)C1c1cccs1 (racemic) [C2, 2-(2-methoxyethyl)-N-(3-methoxyphenyl)-1-oxo-3-(thiophen-2-yl)-1,2,3,4-tetrahydroisoquinoline-4-carboxamide]",–,–,–,–,"EC50 ([3]; concentration required to reduce the synthesis of HCV replicon by 50% as determined by real-time quantitative RT-PCR): 17.000 mg/L; IC50 ([1]; 72 hours, listed as C2 (trans)): 1.3 mg/L; CC50 ([2]; Table 2, listed as C2 (trans)): 41.2 mg/L; CC50 ([2]; Table 4): >50 mg/L"
"COCCN1C(=O)c2c(F)cccc2C(C(=O)Nc2cccc(OC)c2)C1c1cccs1 (centres unmarked) [C51, 8-Fluoro-2-(2-methoxyethyl)-N-(3-methoxyphenyl)-1-oxo-3-(thiophen-2-yl)-1,2,3,4-tetrahydroisoquinoline-4-carboxamide]",0.5 mg/L,< 0.4 mg/L,–,–,–
"C#CC1C(C(=O)Nc2ccc(-n3cccc3)cc2)c2ccccc2C(=O)N1CCOC (centres unmarked) [C152, N-(4-(1H-pyrrol-1-yl)phenyl)-3-ethynyl-2-(2-methoxyethyl)-1-oxo-1,2,3,4-tetrahydroisoquinoline-4-carboxamide]",0.2 mg/L,0.2 mg/L,30 mg/L,> 30 mg/L,–
"COCCN1C(=O)c2ccccc2C(C(=O)Nc2ccc(-c3ccco3)cc2)C1c1cccs1 (centres unmarked) [C159, N-(4-(furan-2-yl)phenyl)-2-(2-methoxyethyl)-1-oxo-3-(thiophen-2-yl)-1,2,3,4-tetrahydroisoquinoline-4-carboxamide]",0.028 mg/L,0.064 mg/L,> 100 mg/L,> 50 mg/L,–
"COCCN1C(=O)c2ccccc2C(C(=O)Nc2ccc3nc(C)ccc3c2)C1c1cccs1 (centres unmarked) [C168, 2-(2-methoxyethyl)-N-(2-methylquinolin-6-yl)-1-oxo-3-(thiophen-2-yl)-1,2,3,4-tetrahydroisoquinoline-4-carboxamide]",0.037 mg/L,0.048 mg/L,–,–,–
